Measurements: US12551500B2, “C6′-substituted locked nucleic acid-modified cap analog and use thereof” (Hangzhou Tianlong Pharmaceutical Co., Ltd., priority 2024, dated 2026)

Tests used:
[1] = target: T1, DCP2 enzyme (Schizosaccharomyces pombe, UniProt O13828); assay: Decapping enzyme stability test; assay type: biochemical; conditions: 30 pmol RNA, 50 U mRNA decapping enzyme, 37° C., 45 minutes
T1 construct: purchased New England Biolabs
T1 sequence (O13828 1-243 limits assumed): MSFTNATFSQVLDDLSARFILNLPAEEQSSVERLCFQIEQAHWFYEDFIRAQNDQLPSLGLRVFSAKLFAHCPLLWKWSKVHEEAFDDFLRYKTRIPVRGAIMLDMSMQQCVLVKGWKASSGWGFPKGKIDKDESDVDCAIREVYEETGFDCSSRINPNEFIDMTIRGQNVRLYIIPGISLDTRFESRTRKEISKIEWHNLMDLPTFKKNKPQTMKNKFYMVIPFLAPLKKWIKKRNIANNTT
T1 sequence (Q9P805 1-127 partner): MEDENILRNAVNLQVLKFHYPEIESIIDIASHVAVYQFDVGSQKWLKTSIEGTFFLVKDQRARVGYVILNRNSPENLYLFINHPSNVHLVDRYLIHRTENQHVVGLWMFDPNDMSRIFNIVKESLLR
T1 sequence (Q10108 155-180 partner limits assumed): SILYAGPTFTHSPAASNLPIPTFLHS
Protocol: 30 pmol of RNAs purified by polyacrylamide gel electrophoresis (PAGE) was subjected to an enzymatic reaction with 50 U of mRNA decapping enzyme (New England Biolabs) and 1×MDE buffer at 37° C. for 45 minutes. The enzymatic reactants were subjected to PAGE and stained with SYBR Green II (Lonza), followed by observation of the post-electrophoresis gel image on a Typhoon FLA 7000 (GE Healthcare) instrument. The electrophoresis band intensity ratio of RNA capping to RNA decapping was counted using ImageQuant (GE Healthcare) software, and the decapping rate of the decapping enzyme was calculated (as shown in Table 6).

[2] = system: BALB/C mice; assay: In vivo imaging of protein expressed by LNP-carrying Fluc-mRNA in mice; conditions: female BALB/C mice
Protocol: The LNP preparation containing […] of Fluc-mRNAs transcribed using the cap analogs YK-CAP-001 to 006 in the present disclosure and the cap analogs N-7413, compound 14, and m6A in the prior art was intramuscularly injected into female BALB/C mice aged 4 to 6 weeks and weighing 17 to 19 g. At specific time points after administration (6 hours, 12 hours, 24 hours, 48 hours, 96 hours, and 168 hours), the mice were intraperitoneally injected with fluorescence imaging substrate. The mice were then allowed to move freely for 5 minutes, followed by detection of the average radiation intensity (corresponding to the amount of protein expression) of the protein expressed by LNP-carrying mRNA in the mice using an IVIS Spectrum small-animal in vivo imaging system.

[3] = target: T2, T7 RNA polymerase (Escherichia phage T7, UniProt P00573); assay: Capping rate of in vitro transcribed mRNA by LC-MS; assay type: biochemical; conditions: mRNA transcribed with the cap analog, LC-MS
Protocol: (§1) YK-CAP-001 to 006 and compound 14 in Table 1 were respectively used as cap analogs.
(§2) During the experiment, the volume of materials required for the system was first calculated, and then sample addition was conducted. The system was first added with sterile enzyme-free water, followed by the sequential addition of 10× buffer, NTPs, and cap analogs, mixed well, and gently centrifuged. Nuclease inhibitors, inorganic pyrophosphatase, T7 RNA polymerase, and linearized DNA templates were then added thereto. The system was mixed well, gently centrifuged, and incubated at 37° C. After 2 hours of incubation, the system was added with 1 U of DNase I and incubated at 37° C. for another 30 minutes. The mRNA precipitate was then washed with 75% ethanol, and after the ethanol was briefly evaporated to dryness, the mRNA was redissolved in sterile enzyme-free water.
(4) The obtained mRNA was subjected to an annealing reaction with a probe.
The annealing reaction was performed in a PCR instrument: 95° C. for 5 minutes; 65° C. for 2 minutes; 55° C. for 2 minutes; 40° C. for 2 minutes; 22° C. for 2 minutes.
(5) Magnetic bead pretreatment and probe binding: 100 μL of magnetic beads was placed on a magnetic frame for pretreatment. The magnetic bead solution was added with 120 μL of sample and incubated at room temperature for 30 minutes with slow mixing.
(6) mRNA splicing and obtaining the 5′ single-strand sequence bound to the probe
The mixture was added with 20 μL of RNase H (5 U/μL) and incubated at 37° C. for 3 hours with mixing every half hour. After incubation, the magnetic beads were washed and then added with 100 μL of 75% methanol heated to 80° C. The mixture was heated to 80° C. on a heating plate, held for 3 minutes, then placed on a magnetic frame to aspirate the supernatant, and dried at room temperature for 45 minutes to a volume of 10 μL using a centrifugal evaporator. The sample was then resuspended in 50 μL of 100 μM EDTA/1% MeOH and ready for LC-MS analysis to determine the capping of RNA in the transcription reaction. Since there is a significant difference in molecular weight between capped and uncapped bases, the capping rate of mRNA transcription initiated by different cap analogs can be determined based on the difference in molecular mass.

[4] = target: T2, T7 RNA polymerase; assay: In vitro transcription yield of mRNA with cap analog (co-transcriptional capping); assay type: biochemical; parameters: in vitro transcription yield of mRNA: unit not given here; conditions: for Yield per unit template: in vitro transcription, 1 μg DNA template, 20 μL system, 37° C. 2 hours
Protocol: (1) Capping synthesis using cap analogs
The plasmid was first linearized with plasmid linearizing enzyme, and then the linearized plasmid was purified.
(2) In vitro transcription and synthesis of mRNA
as §1, §2
(3) The transcription product was purified, and the in vitro transcription yield of mRNA was recorded.

[5] = Characterization of lipid nanoparticles encapsulating Fluc-mRNA; assay type: physicochemical; conditions: for Particle size: LNP (YK-009/DSPC/cholesterol/DMG-PEG2000) encapsulating Fluc-mRNA transcribed using the cap analog; for PDI: LNP encapsulating Fluc-mRNA transcribed using the cap analog; for EE: encapsulation efficiency of LNP encapsulating Fluc-mRNA transcribed using the cap analog
Protocol: Cationic lipid YK-009 (Beijing Youcare Kechuang Pharmaceutical Technology Co., Ltd.), DSPC (AVT (Shanghai) Pharmaceutical Technology Co., Ltd.), cholesterol (AVT (Shanghai) Pharmaceutical Technology Co., Ltd.), and DMG-PEG2000 were dissolved in ethanol at a molar ratio of 49:10:39.5:1.5, and the mRNA was diluted in 50 mM citrate buffer (pH=4). The ethanol lipid solution was mixed with the Fluc-mRNA aqueous solution prepared from different cap structures at a volume ratio of 1:3 using a microfluidic device at a flow rate of 10 mL/min to prepare LNPs at a weight ratio of total lipid to mRNA of approximately 15:1. The resulting liposomes were diluted to 10-fold volume with PBS, and then ultrafiltered with a 300 KDa ultrafiltration tube to remove ethanol. The volume was then fixed to a certain volume with PBS. Finally, the LNPs were filtered through a 0.2 μm sterile filter to obtain an LNP preparation encapsulating Fluc-mRNA using YK-009/DSPC/cholesterol/DMG-PEG2000 (at a molar ratio of 49:10:39.5:1.5).
The particle size and polydispersity index (PDI) were determined by dynamic light scattering using a Malvern laser particle size analyzer. 10 μL of the liposome solution was taken, diluted to 1 mL with RNase-free deionized water, and added to a sample pool. Each sample was measured in triplicate. The measurement conditions were: a scattering angle of 90° and a temperature of 25° C. The encapsulation efficiency of LNPs was determined using the Quant-iT RiboGreen RNA Quantification Kit (Thermo Fisher Scientific, UK) according to the manufacturer's instructions.

[6] = 6 h after intramuscular injection of LNP Fluc-mRNA
[7] = 12 h after intramuscular injection of LNP Fluc-mRNA
[8] = 24 h after intramuscular injection of LNP Fluc-mRNA
[9] = 48 h after intramuscular injection of LNP Fluc-mRNA
[10] = 96 h after intramuscular injection of LNP Fluc-mRNA
[11] = 168 h after intramuscular injection of LNP Fluc-mRNA

T2 sequence (P00573 whole entry): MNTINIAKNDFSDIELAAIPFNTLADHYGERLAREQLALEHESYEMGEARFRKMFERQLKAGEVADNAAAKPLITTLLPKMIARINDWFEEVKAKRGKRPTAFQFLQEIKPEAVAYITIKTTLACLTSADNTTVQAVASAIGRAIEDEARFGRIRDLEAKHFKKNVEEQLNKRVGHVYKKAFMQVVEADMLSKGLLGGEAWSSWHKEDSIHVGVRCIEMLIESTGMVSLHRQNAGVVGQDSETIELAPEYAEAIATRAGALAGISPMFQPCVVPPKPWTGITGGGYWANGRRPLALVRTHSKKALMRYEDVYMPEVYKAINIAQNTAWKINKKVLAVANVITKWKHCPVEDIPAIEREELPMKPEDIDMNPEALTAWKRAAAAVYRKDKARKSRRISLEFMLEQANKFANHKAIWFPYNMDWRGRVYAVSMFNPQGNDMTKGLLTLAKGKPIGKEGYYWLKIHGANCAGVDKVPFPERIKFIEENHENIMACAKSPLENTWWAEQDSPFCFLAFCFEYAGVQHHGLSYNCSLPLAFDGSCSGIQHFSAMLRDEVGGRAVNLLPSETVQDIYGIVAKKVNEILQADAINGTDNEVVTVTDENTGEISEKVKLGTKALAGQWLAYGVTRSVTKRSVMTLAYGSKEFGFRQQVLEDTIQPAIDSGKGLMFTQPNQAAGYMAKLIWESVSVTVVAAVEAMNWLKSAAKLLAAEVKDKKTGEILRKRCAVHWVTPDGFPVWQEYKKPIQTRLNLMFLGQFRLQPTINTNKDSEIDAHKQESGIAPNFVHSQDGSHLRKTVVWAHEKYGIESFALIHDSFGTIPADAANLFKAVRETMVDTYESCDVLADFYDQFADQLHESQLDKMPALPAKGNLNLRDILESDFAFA

| Structure (SMILES) | Decapping rate (%) of DCP2 enzyme [1] | Average radiation intensity [2, 6] | Average radiation intensity ([2]; 6 h after intramuscular injection of LNP Fluc-mRNA, listed as compound 14) | Average radiation intensity [2, 7] | Average radiation intensity [2, 8] | Average radiation intensity [2, 9] | Average radiation intensity [2, 10] | Average radiation intensity [2, 11] | Capping rate [3] | Yield per unit template [4] | Particle size [5] | PDI [5] | EE [5] | in vitro transcription yield of mRNA [4] |
| --- | --- | --- | --- | --- | --- | --- | --- | --- | --- | --- | --- | --- | --- | --- |
| COC1C(OP(=O)([O-])OC[C@H]2O[C@@H](n3cnc4c(=O)[nH]c(N)nc43)C(O)C2O)[C@@H](COP(=O)(O)OP(=O)(O)OP(=O)(O)OC[C@]23COC(C2O)[C@H]([n+]2cn(C)c4c(=O)[nH]c(N)nc42)O3)O[C@H]1n1cnc2c(N)ncnc21 (stereo partly drawn) [Compound 14, reference compound] | 28.8% | 2589500 p/s/cm^2/sr | 2,589,500 p/s/cm^2/sr | 1622075 p/s/cm^2/sr | 1099050 p/s/cm^2/sr | 946675 p/s/cm^2/sr | 57270 p/s/cm^2/sr | 17828 p/s/cm^2/sr | 77.5% | 120.9 µg | 102.2 nm | 0.018 | 96.8% | – |
| COCC1C(O)[C@H]([n+]2cn(C)c3c(=O)[nH]c(N)nc32)O[C@@H]1COP(=O)(O)OP(=O)(O)OP(=O)(O)OC[C@H]1O[C@@H](n2cnc3c(N)ncnc32)C(OC)C1OP(=O)([O-])OC[C@H]1O[C@@H](n2cnc3c(=O)[nH]c(N)nc32)C(O)C1O (stereo partly drawn) [HN3002, reference compound] | 23.2% | – | – | – | – | – | – | – | – | – | 91.03 nm | 0.032 | 94.8% | – |
| COC1C(OP(=O)([O-])OC[C@H]2O[C@@H](n3cnc4c(=O)[nH]c(N)nc43)C(O)C2O)[C@@H](COP(=O)(O)OP(=O)(O)OP(=O)(O)OC[C@H]2O[C@@H]([n+]3cn(C)c4c(=O)[nH]c(N)nc43)C(O)C2OC)O[C@H]1n1cnc2c(N)ncnc21 (stereo partly drawn) [N-7413, reference compound] | 48.6% | – | – | 1806125 p/s/cm^2/sr | 906625 p/s/cm^2/sr | 710545 p/s/cm^2/sr | 68400 p/s/cm^2/sr | 18233 p/s/cm^2/sr | – | – | 100.5 nm | 0.041 | 95.4% | – |
| COC1C(OP(=O)([O-])OC[C@H]2O[C@@H](n3cnc4c(=O)[nH]c(N)nc43)C(O)C2O)[C@@H](COP(=O)(O)OP(=O)(O)OP(=O)(O)OC[C@]23O[C@@H]([n+]4cn(C)c5c(=O)[nH]c(N)nc54)C(O[C@H]2CCN(C)C)C3O)O[C@H]1n1cnc2c(N)ncnc21 (stereo partly drawn) [YK-CAP-001] | 26.3% | 1728300 p/s/cm^2/sr | – | 985800 p/s/cm^2/sr | 612430 p/s/cm^2/sr | 578750 p/s/cm^2/sr | 43485 p/s/cm^2/sr | 10467 p/s/cm^2/sr | 73.1% | 89.3 µg | 86.13 nm | 0.044 | 95.7% | 89.3 |
| COC1C(OP(=O)([O-])OC[C@H]2O[C@@H](n3cnc4c(=O)[nH]c(N)nc43)C(O)C2O)[C@@H](COP(=O)(O)OP(=O)(O)OP(=O)(O)OC[C@]23O[C@@H]([n+]4cn(C)c5c(=O)[nH]c(N)nc54)C(O[C@H]2CC#N)C3O)O[C@H]1n1cnc2c(N)ncnc21 (stereo partly drawn) [YK-CAP-002] | 24.6% | 1466925 p/s/cm^2/sr | – | 801300 p/s/cm^2/sr | 278665 p/s/cm^2/sr | 320725 p/s/cm^2/sr | 20893 p/s/cm^2/sr | 9768 p/s/cm^2/sr | 70.2% | 103.1 µg | 86.31 nm | 0.058 | 93.1% | – |
| CNc1ncnc2c1ncn2[C@@H]1O[C@H](COP(=O)(O)OP(=O)(O)OP(=O)(O)OC[C@H]2O[C@@H]([n+]3cn(C)c4c(=O)[nH]c(N)nc43)C(O)C2O)C(OP(=O)([O-])OC[C@H]2O[C@@H](n3cnc4c(=O)[nH]c(N)nc43)C(O)C2O)C1OC (stereo partly drawn) [m6A, reference compound] | 27.5% | – | – | 702940 p/s/cm^2/sr | 201585 p/s/cm^2/sr | 238500 p/s/cm^2/sr | 33586 p/s/cm^2/sr | 12000 p/s/cm^2/sr | – | – | 89.99 nm | 0.047 | 94.2% | – |
